Consider one molecule from patent publication US9320743B2, “Use of 5α-androstane-3β,5,6β-triol in preparation of neuroprotective drugs” (GUANGZHOU CELLPROTEK PHARMACEUTICAL LTD., priority 2010, dated 2016).

SMILES strings stand for the structures.

Holding throughout (assay type): cell-based, rat
Experiment [1] has as its system cortical neurons. Briefly: Hypoxia-induced damage of cortical neurons. Particulars: hypoxia 1% oxygen, 12 hours; pretreated 30 min, MK801 10 μM, YC-6 different concentrations; compared with the control group. Here is the method: (§1) Cortex with meninges and blood vessels removed were obtained from newborn (1-day old) rats. 0.05 g/L DNase I was used to pipette the cell to single cell suspension following 0.25 g/L trypsin digestion. The suspension was then centrifuged to collect precipitation and diluted it with DMEM-F12 medium containing 5% (v/v) FBS and 2% B27. The cell was seeded on dishes pre-coated with poly-lysine. 24 hours following the seeding, 10 μM Ara-C was added to inhibit growth and proliferation of non-neuron cells. Half medium change was performed 2-3 times per week. Experiments were carried out on the 10 DIV.
The primary cultured cortical neurons at 10 DIV were divided into four groups: control group, hypoxia group, MK801+ hypoxia group, and YC-6+ hypoxia group. 3 duplicates wells were provided for each group. The control group was incubated in CO2 normoxic incubator. […]
The treatment was performed in 96-well plates. […] The crystals were dissolved after half an hour and OD value was detected at 570 nm wavelength by Microplates-Reader. 50 μL of culture medium was obtained from all groups at different time points and LDH release was determined for each well according to the supplier's instructions. Data were presented as the mean±SD, one-way ANOVA and statistically analyzed using paired-samples t-test and analysis of variance among means of multiple samples. […]

Experiment [2] relates to cortical neurons. Description: Glutamate-induced excitotoxicity of cortical neurons. The note with it: 200 μM glutamate, 24 hours. Here is the method: as §1
(§2) The primary cultured cortical neurons at 10 DIV were divided into four groups: control group, glutamate group, MK801+glutamate group, and YC-6+glutamate group. The control group received no treatment. The glutamate group was treated with 200 μM glutamate. The MK801 group and the YC-6 group were pre-treated with MK801 (10 nM) and YC-6 with different concentrations, respectively, followed by incubation at 37° C. for 30 minutes, then glutamate was added. After 24 hours, phase contrast microscope was used to observe neuronal morphologies. The cells were stained by FDA and observed under inverted fluorescent microscope for cell counting to calculate survival rate of neurons. The activity of lactate dehydrogenase (LDH) was also determined for each group. Survival Rate=Number of live cells for each group/Number of live cells in the control group*100%

The test system of another experiment is spinal motor neurons. Description: Glutamate-induced excitotoxicity of spinal motor neurons. The note with it: 24 hours, pre-treated 30 minutes, MK801 10 μM, YC-6 different concentrations. As to the method:
Spinal cord was obtained from 15-day pregnant SD rats. The cristae membrane and blood film were removed. The spinal cord tissues of fetal rats is digested with 0.125% trypsin and then centrifuged to collect intermediate layer enriched with motor neurons. Cell debris were removed by centrifugation and cells were adhered by differential velocity adherent technique for 1 h. Suspending spinal motor neurons with slower adhering velocity were collected and seeded. 24 hours following the seeding, Ara-C was added. The Culture medium was replaced on the 3 DIV with L-15 serum free medium, followed by half medium change every 2˜3 days. Experiments were carried out on the 3-5 DIV.
The primary cultured spinal motor neurons at 5 DIV were divided into four groups: control group, glutamate group, MK801+glutamate group, and YC-6+glutamate group. The control group received no treatment. The glutamate group was treated with […] glutamate. The MK801 group and the YC-6 group were pre-treated with MK801 (10 μM) and YC-6 with different concentrations, respectively, followed by incubation at 37° C. for 30 minutes, then glutamate was added. After 24 hours, phase contrast microscope was used to observe neuronal morphologies. […] The activity of lactate dehydrogenase (LDH) was also determined for each group. […]

Experiment [3] relates to cerebellar granule neurons. Briefly: Glutamate-induced excitotoxicity of cerebellar granule neurons. The note with it: 200 μM glutamate, 24 hours. Here is the method:
Cerebella with meninges and blood vessels removed were obtained from 7-8 days old rats weighted 15-20 g. 0.05 g/L DNase I was used to pipette the cell to single cell suspension following 0.25 g/L trypsin digestion. The suspension was then centrifuged to collect precipitation and resuspended with BME medium containing 10% (v/v) FBS and 25 mM KCl. The cells were then seeded on dishes pre-coated with poly-lysine. 24 hours following the seeding, 10 μM Ara-C was added to inhibit growth and proliferation of non-neuron cells, such that the cerebellar granule neurons have purity not less than 95%. Glucose was added during culture to provide supplementary energy for cellular metabolism. Experiments were carried out at 8 DIV.
as §2, with “cerebellar granule neurons” for “primary”, “for 8 days” for “cortical neurons at 10 DIV”, “μM)” for “nM)”

As for `C[C@]12N[C@H](Cc3ccccc31)c1ccccc12` [MK801], the “morphology of cortical neuronal cells” value in the experiment with cortical neurons [1] was “no difference in morphology”. Moreover, the “survival rate of neurons” value in the experiment with cortical neurons [2] (FDA staining, pre-treated 30 minutes, MK801 10 nM, YC-6 different concentrations, vs glutamate group) is listed as “increased survival rates”; in experiment [3] (FDA staining, pre-treated 30 minutes, MK801 10 μM, YC-6 different concentrations, vs glutamate group) it was “increased survival rate”. In addition, the “neuronal morphology (phase contrast microscope)” value is “maintained intact soma and neurites” in the experiment with cortical neurons [2] (a great number of neurons); “maintain the integrity of soma and processes” in experiment [3] (majority of neurons). The LDH release result is reported as “decreased LDH release” in the experiment with cortical neurons [2] (pre-treated 30 minutes, MK801 10 nM, YC-6 different concentrations, vs glutamate group) and “decreased LDH release” in experiment [3] (pre-treated 30 minutes, MK801 10 μM, YC-6 different concentrations, vs glutamate group). For the same molecule, the “number of spinal motor neurons (phase contrast microscope)” value in the experiment on spinal motor neurons was “significantly increased”.
